Measurements: paper PMC9151520 (Archives of Toxicology, 2022)
Several values for one entry are separate records, joined by “and”; a condition that tells them apart may be missing. Equal values may be shown once. Where a name gives a salt, the structure may show the parent alone. Read-outs that look alike come from different tables or passages of the source.

Legend:
[1] = test system: p53 signaling (p53RE-bla HCT-116 cells); experiment: cells; type: cell-based; conditions: for Emax: HCT-116, read-out: p53 activation efficacy, primary screening
[2] = test system: p53 signaling (p53RE-bla HCT-116 cells)
[3] = test system: p53 signaling (p53RE-bla HCT-116 cells); remark: listed apart in the source
[4] = Homo sapiens, HCT-116, read-out: p53 activation EC50, primary screening
[5] = read-out: EC50, p53 activation, cherry pick confirmation
[6] = read-out: EC50, p53 activation, primary screening

Structure (SMILES): CN(C)c1ccc(C(=N)c2ccc(N(C)C)cc2)cc1 [Auramine hydrochloride]
- p53 activation EC50, cherry pick confirmation [1]: inactive
- p53 activation efficacy, cherry pick confirmation [1]: inactive
- EC50 [1, 4]: 3.94 µM
- Emax ([1]; Homo sapiens): 37.6%
- p53 activation EC50, cherry pick confirmation [2]: inactive
- p53 activation EC50, primary screening [2]: inactive
- p53 activation efficacy, cherry pick confirmation [2]: inactive
- p53 activation efficacy, primary screening [2]: inactive
- Viability EC50, cherry pick confirmation (p53RE-bla HCT-116 cells): inactive
- Viability EC50, primary screening (p53RE-bla HCT-116 cells): inactive
- Viability efficacy, cherry pick confirmation (p53RE-bla HCT-116 cells): inactive
- Viability efficacy, primary screening (p53RE-bla HCT-116 cells): inactive
- p53 activation EC50, cherry pick confirmation [3]: inactive
- p53 activation EC50, primary screening [3]: inactive
- p53 activation efficacy, cherry pick confirmation [3]: inactive
- p53 activation efficacy, primary screening [3]: inactive

Structure (SMILES): NS(=O)(=O)O [Sulfamic acid]
- p53 activation EC50, cherry pick confirmation [1]: inactive
- p53 activation EC50, primary screening [1]: inactive
- p53 activation efficacy, cherry pick confirmation [1]: inactive
- p53 activation efficacy, primary screening [1]: inactive
- p53 activation EC50, cherry pick confirmation [2]: inactive
- p53 activation efficacy, cherry pick confirmation [2]: inactive
- EC50 ([2]; read-out: p53 activation EC50, primary screening): 24.2 µM
- Viability EC50, cherry pick confirmation (p53RE-bla HCT-116 cells): inactive
- Viability EC50, primary screening (p53RE-bla HCT-116 cells): inactive
- Viability efficacy, cherry pick confirmation (p53RE-bla HCT-116 cells): inactive
- Viability efficacy, primary screening (p53RE-bla HCT-116 cells): inactive
- p53 activation EC50, cherry pick confirmation [3]: inactive
- p53 activation EC50, primary screening [3]: inactive
- p53 activation efficacy, cherry pick confirmation [3]: inactive

Structure (SMILES): Nc1cnn([C@@H]2O[C@H](CO)[C@@H](O)[C@H]2O)c(=O)n1 [6-Azacytidine]
- Efficacy, p53 activation, cherry pick confirmation [1]: 68.68
- Efficacy, p53 activation, primary screening [1]: 56.623
- EC50 [1, 5]: 1.1 µM
- EC50 [1, 6]: 0.807 µM
- EC50, p53 activation, cherry pick confirmation [2]: inactive
- EC50, p53 activation, primary screening [2]: inactive
- Efficacy, p53 activation, cherry pick confirmation [2]: inactive
- Efficacy, p53 activation, primary screening [2]: inactive
- EC50, viability, cherry pick confirmation (p53RE-bla HCT-116 cells): inactive
- EC50, viability, primary screening (p53RE-bla HCT-116 cells): inactive
- Efficacy, viability, cherry pick confirmation (p53RE-bla HCT-116 cells): inactive
- Efficacy, viability, primary screening (p53RE-bla HCT-116 cells): inactive
- EC50, p53 activation, cherry pick confirmation [3]: inactive
- EC50, p53 activation, primary screening [3]: inactive
- Efficacy, p53 activation, cherry pick confirmation [3]: inactive
- Efficacy, p53 activation, primary screening [3]: inactive

Structure (SMILES): CCOP(=S)(OCC)Oc1cc(Cl)c(Br)cc1Cl [Bromophos-ethyl]
- EC50, p53 activation, primary screening [1]: inactive
- Efficacy, p53 activation, cherry pick confirmation [1]: 38.522
- Efficacy, p53 activation, primary screening [1]: inactive
- EC50 [1, 5]: 33.2 µM
- EC50 [2]: 12.5 µM
- EC50 [2, 5]: 6.31 µM
- EC50, viability, cherry pick confirmation (p53RE-bla HCT-116 cells): inactive
- EC50, viability, primary screening (p53RE-bla HCT-116 cells): inactive
- Efficacy, viability, cherry pick confirmation (p53RE-bla HCT-116 cells): inactive
- Efficacy, viability, primary screening (p53RE-bla HCT-116 cells): inactive
- EC50, p53 activation, cherry pick confirmation [3]: inactive

Structure (SMILES): CCN(CC)C(=O)C(Cl)=C(C)OP(=O)(OC)OC [Phosphamidon]
- p53 activation EC50, No MS [1]: inactive
- p53 activation Efficacy, No MS [1]: inactive
- EC50 [2]: 3.22 µM
- EC50 ([2]; read-out: p53 activation EC50, RLM): 2.35 µM and 3.43 µM
- Viability EC50, HLM (p53RE-bla HCT-116 cells): inactive
- Viability EC50, No MS (p53RE-bla HCT-116 cells): inactive
- Viability EC50, RLM (p53RE-bla HCT-116 cells): inactive
- Viability Efficacy, No MS (p53RE-bla HCT-116 cells): inactive
- p53 activation EC50, HLM [3]: inactive
- EC50 ([3]; read-out: p53 activation EC50, HLM): 5.82 µM

Structure (SMILES): COc1cccc2c1cc([N+](=O)[O-])c1c(C(=O)[O-])cc3c(c12)OCO3.[Na+] [Sodium aristolochate-I]
- EC50, p53 activation, cherry pick confirmation [1]: inactive
- Efficacy, p53 activation, cherry pick confirmation [1]: inactive
- Efficacy, p53 activation, primary screening [1]: 50.4333
- EC50 [1, 6]: 3.65 µM
- EC50, p53 activation, cherry pick confirmation [2]: inactive
- EC50, p53 activation, primary screening [2]: inactive
- Efficacy, p53 activation, cherry pick confirmation [2]: inactive
- Efficacy, p53 activation, primary screening [2]: inactive
- EC50, viability, cherry pick confirmation (p53RE-bla HCT-116 cells): inactive
- EC50, viability, primary screening (p53RE-bla HCT-116 cells): inactive
- Efficacy, viability, primary screening (p53RE-bla HCT-116 cells): inactive
- EC50 (p53RE-bla HCT-116 cells; read-out: EC50, viability, cherry pick confirmation): 9.67 µM
- EC50, p53 activation, cherry pick confirmation [3]: inactive
- EC50, p53 activation, primary screening [3]: inactive
- Efficacy, p53 activation, cherry pick confirmation [3]: inactive
- Efficacy, p53 activation, primary screening [3]: inactive

Structure (SMILES): O=C(NC(=O)c1c(F)cccc1F)Nc1cc(Cl)c(Oc2ncc(C(F)(F)F)cc2Cl)c(Cl)c1 [Chlorfluazuron]
- p53 activation EC50, cherry pick confirmation [1]: inactive
- p53 activation efficacy, cherry pick confirmation [1]: inactive
- EC50 [1, 4]: 31.4 µM
- Emax ([1]; Homo sapiens): 80.6%
- p53 activation EC50, cherry pick confirmation [2]: inactive
- p53 activation EC50, primary screening [2]: inactive
- p53 activation efficacy, cherry pick confirmation [2]: inactive
- p53 activation efficacy, primary screening [2]: inactive
- Viability EC50, cherry pick confirmation (p53RE-bla HCT-116 cells): inactive
- Viability EC50, primary screening (p53RE-bla HCT-116 cells): inactive
- Viability efficacy, cherry pick confirmation (p53RE-bla HCT-116 cells): inactive
- Viability efficacy, primary screening (p53RE-bla HCT-116 cells): inactive
- p53 activation EC50, cherry pick confirmation [3]: inactive
- p53 activation EC50, primary screening [3]: inactive
- p53 activation efficacy, cherry pick confirmation [3]: inactive
- p53 activation efficacy, primary screening [3]: inactive
